Literature values as cited in patent publication EP2497775A1, “Ferrocene-based compounds and their use as ROS regulating prodrugs” (Ruprecht-Karls-Universität Heidelberg, priority 2011, dated 2012).

Experiments:
8226 (Human myeloma) = conditions: ref. [1]; cited from earlier work
WiDr (Human, colon) = conditions: ref. [1]; cited from earlier work
(Human, breast) = conditions: ref. [1]; cited from earlier work
[1] = test system: different neuroblastoma cell lines; conditions: ref. [2]; cited from earlier work
SW480 (Human, colon) = conditions: ref. [3]; cited from earlier work
HT29 (Human, colon) = conditions: ref. [4]; cited from earlier work
Human multiple myeloma = conditions: ref. [7]; cited from earlier work
HL-60 (leukemia) = conditions: ref. [8]; cited from earlier work
HCT8 (colon) = conditions: ref. [8]; cited from earlier work

SMILES: CCCCS(=N)(=O)CCC(N)C(=O)O (stereo not drawn) [Buthionine sulfoximine (BSO), Buthionine sulfoximine]
- IC50 (8226 (Human myeloma)): 2000 nM
- IC50 (WiDr (Human, colon)): 450000 nM
- IC50 ((Human, breast)): 850000 nM
- IC50 [1]: 300 to 311000 nM

SMILES: CC(=O)Oc1ccccc1C(=O)Oc1cccc(CO[N+](=O)[O-])c1 [NO-ASA]
- IC50 (SW480 (Human, colon)): 85000 nM
- IC50 (HT29 (Human, colon)): 3000 to 7000 nM

SMILES: CC1(C)CCC2=C(O1)c1ccccc1C(=O)C2=O [β-Lapachone]
- IC50 (Human multiple myeloma): 1000 nM
- IC50 (HL-60 (leukemia)): 1650 nM
- IC50 (HCT8 (colon)): 830 nM
